Species on record: Rattus norvegicus
Assay: Open TG-GATES - Regimen: Single
Type: toxicity, organism-based, Sprague-Dawley
Set-up: regimen Single, gender Male, age 6 weeks
Conditions: in vivo, po, 100 mg/kg, route gavage, dose level Low; for APTT / Bas / Eos / Fbg / Hb / Ht / Lym / MCH / MCHC / MCV / Mono / Neu / PT / Plat / RBC / Ret / WBC: tissue Blood; for KIDNEY_L / KIDNEY_R / KIDNEY_TOTAL: tissue Kidney; for LIVER: tissue Liver; for A/G / ALP / ALT / AST / BUN / CRE / Ca / Cl / DBIL / GLC / IP / K / LDH / Na / PL / RALB / TBIL / TC / TG / TP / gamma-GTP: tissue Plasma

## CN(C)[C@@H]1C(O)=C(C(N)=O)C(=O)[C@@]2(O)C(O)=C3C(=O)c4c(O)cccc4[C@@](C)(O)[C@H]3C[C@@H]12 [TETRACYCLINE]
3 h
  TERMINAL_BW: 185.7 g
  APTT: 16.7 s
  Bas: 0%
  Eos: 0.8%
  Fbg: 197.8 mg/dL
  Hb: 12.8 g/dL
  Ht: 38.5%
  Lym: 84.2%
  MCH: 21.8 pg
  MCHC: 33.2%
  MCV: 65.7 fL
  Mono: 6.4%
  Neu: 9.2%
  PT: 12.1 s
  Plat: 98.5 x10_4/uL
  RBC: 586.6 x10_4/ul
  Ret: 9.8%
  WBC: 101.6 x10_2/uL
  KIDNEY_L: 0.9 g
  KIDNEY_R: 0.9 g
  KIDNEY_TOTAL: 1.9 g
  LIVER: 8.9 g
  A/G: 2.3
  ALP: 713.6 IU/L
  ALT: 40 IU/L
  AST: 69.4 IU/L
  BUN: 12 mg/dL
  CRE: 0.5 mg/dL
  Ca: 11.1 mg/dL
  Cl: 104 meq/L
  DBIL: 0.036 mg/dL
  GLC: 179.8 mg/dL
  IP: 10.7 mg/dL
  K: 4.9 meq/L
  LDH: 84.2 IU/L
  Na: 137.4 meq/L
  PL: 127.8 mg/dL
  RALB: 3.8 g/dL
  TBIL: 0.4 mg/dL
  TC: 73.8 mg/dL
  TG: 38 mg/dL
  TP: 5.4 g/dL
  gamma-GTP: 1.2 IU/L
6 h
  TERMINAL_BW: 184.5 g
  APTT: 16.5 s
  Bas: 0%
  Eos: 0.6%
  Fbg: 199.6 mg/dL
  Hb: 13.2 g/dL
  Ht: 39.9%
  Lym: 80.2%
  MCH: 21.9 pg
  MCHC: 33.2%
  MCV: 66 fL
  Mono: 5.2%
  Neu: 14.4%
  PT: 12.1 s
  Plat: 107 x10_4/uL
  RBC: 607.2 x10_4/ul
  Ret: 10.1%
  WBC: 95.2 x10_2/uL
  KIDNEY_L: 0.9 g
  KIDNEY_R: 0.9 g
  KIDNEY_TOTAL: 1.7 g
  LIVER: 8.3 g
  A/G: 2.2
  ALP: 880.4 IU/L
  ALT: 36.2 IU/L
  AST: 69.6 IU/L
  BUN: 12.2 mg/dL
  CRE: 0.4 mg/dL
  Ca: 10.8 mg/dL
  Cl: 106 meq/L
  DBIL: 0.02 mg/dL
  GLC: 175.6 mg/dL
  IP: 10.3 mg/dL
  K: 5.1 meq/L
  LDH: 85.2 IU/L
  Na: 137 meq/L
  PL: 139 mg/dL
  RALB: 3.6 g/dL
  TBIL: 0.3 mg/dL
  TC: 82.2 mg/dL
  TG: 32.4 mg/dL
  TP: 5.3 g/dL
  gamma-GTP: 1.6 IU/L
9 h
  TERMINAL_BW: 181.6 g
  APTT: 16.5 s
  Bas: 0%
  Eos: 0.4%
  Fbg: 210.6 mg/dL
  Hb: 12.9 g/dL
  Ht: 39.4%
  Lym: 81.8%
  MCH: 21.8 pg
  MCHC: 32.8%
  MCV: 66.4 fL
  Mono: 5.8%
  Neu: 11.6%
  PT: 12.2 s
  Plat: 102.3 x10_4/uL
  RBC: 592.8 x10_4/ul
  Ret: 9.5%
  WBC: 93.6 x10_2/uL
  KIDNEY_L: 0.9 g
  KIDNEY_R: 0.9 g
  KIDNEY_TOTAL: 1.7 g
  LIVER: 7.5 g
  A/G: 2.2
  ALP: 861 IU/L
  ALT: 32.8 IU/L
  AST: 64 IU/L
  BUN: 13.2 mg/dL
  CRE: 0.4 mg/dL
  Ca: 10.5 mg/dL
  Cl: 105.8 meq/L
  DBIL: 0.022 mg/dL
  GLC: 176.8 mg/dL
  IP: 10.5 mg/dL
  K: 5.1 meq/L
  LDH: 93.8 IU/L
  Na: 138.4 meq/L
  PL: 126.6 mg/dL
  RALB: 3.8 g/dL
  TBIL: 0.3 mg/dL
  TC: 73.4 mg/dL
  TG: 26 mg/dL
  TP: 5.5 g/dL
  gamma-GTP: 1.8 IU/L
24 h
  TERMINAL_BW: 196.8 g
  APTT: 16.4 s
  Bas: 0%
  Eos: 0.5%
  Fbg: 218 mg/dL
  Hb: 13.5 g/dL
  Ht: 41.6%
  Lym: 84%
  MCH: 22 pg
  MCHC: 32.4%
  MCV: 67.9 fL
  Mono: 8.5%
  Neu: 7.2%
  PT: 11.9 s
  Plat: 105.1 x10_4/uL
  RBC: 614 x10_4/ul
  Ret: 10.3%
  WBC: 88.6 x10_2/uL
  KIDNEY_L: 0.9 g
  KIDNEY_R: 0.9 g
  KIDNEY_TOTAL: 1.8 g
  LIVER: 9.1 g
  A/G: 2.1
  ALP: 914 IU/L
  ALT: 34 IU/L
  AST: 64.8 IU/L
  BUN: 17.8 mg/dL
  CRE: 0.5 mg/dL
  Ca: 11.4 mg/dL
  Cl: 104.8 meq/L
  DBIL: 0 mg/dL
  GLC: 188.5 mg/dL
  IP: 10 mg/dL
  K: 5.2 meq/L
  LDH: 97.8 IU/L
  Na: 140.8 meq/L
  PL: 154.2 mg/dL
  RALB: 3.9 g/dL
  TBIL: 0.3 mg/dL
  TC: 86.5 mg/dL
  TG: 66.2 mg/dL
  TP: 5.8 g/dL
  gamma-GTP: 1 IU/L

Source: ChEMBL document CHEMBL3885861, “Open TG-GATES”
